Bounds are passed on as bounds.

soluble guanylate cyclase (sGC), sequence (Q02153 whole entry): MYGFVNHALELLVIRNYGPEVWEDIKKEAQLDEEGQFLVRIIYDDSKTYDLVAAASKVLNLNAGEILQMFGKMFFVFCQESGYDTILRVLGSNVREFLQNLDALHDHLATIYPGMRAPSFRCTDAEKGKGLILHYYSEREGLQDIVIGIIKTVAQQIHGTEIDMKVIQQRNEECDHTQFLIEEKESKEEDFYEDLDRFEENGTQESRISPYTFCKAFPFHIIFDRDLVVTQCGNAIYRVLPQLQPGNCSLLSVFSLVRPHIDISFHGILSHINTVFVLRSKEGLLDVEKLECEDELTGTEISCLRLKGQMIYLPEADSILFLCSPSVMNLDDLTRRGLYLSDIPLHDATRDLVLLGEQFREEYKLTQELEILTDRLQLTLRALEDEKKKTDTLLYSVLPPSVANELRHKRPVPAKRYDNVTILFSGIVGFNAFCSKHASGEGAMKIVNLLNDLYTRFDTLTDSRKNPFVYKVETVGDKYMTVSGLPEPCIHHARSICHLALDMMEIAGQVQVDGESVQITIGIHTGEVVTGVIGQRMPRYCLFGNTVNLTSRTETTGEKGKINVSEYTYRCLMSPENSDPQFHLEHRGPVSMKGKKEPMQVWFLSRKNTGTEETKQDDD
soluble guanylate cyclase (sGC), sequence (Q02108 whole entry): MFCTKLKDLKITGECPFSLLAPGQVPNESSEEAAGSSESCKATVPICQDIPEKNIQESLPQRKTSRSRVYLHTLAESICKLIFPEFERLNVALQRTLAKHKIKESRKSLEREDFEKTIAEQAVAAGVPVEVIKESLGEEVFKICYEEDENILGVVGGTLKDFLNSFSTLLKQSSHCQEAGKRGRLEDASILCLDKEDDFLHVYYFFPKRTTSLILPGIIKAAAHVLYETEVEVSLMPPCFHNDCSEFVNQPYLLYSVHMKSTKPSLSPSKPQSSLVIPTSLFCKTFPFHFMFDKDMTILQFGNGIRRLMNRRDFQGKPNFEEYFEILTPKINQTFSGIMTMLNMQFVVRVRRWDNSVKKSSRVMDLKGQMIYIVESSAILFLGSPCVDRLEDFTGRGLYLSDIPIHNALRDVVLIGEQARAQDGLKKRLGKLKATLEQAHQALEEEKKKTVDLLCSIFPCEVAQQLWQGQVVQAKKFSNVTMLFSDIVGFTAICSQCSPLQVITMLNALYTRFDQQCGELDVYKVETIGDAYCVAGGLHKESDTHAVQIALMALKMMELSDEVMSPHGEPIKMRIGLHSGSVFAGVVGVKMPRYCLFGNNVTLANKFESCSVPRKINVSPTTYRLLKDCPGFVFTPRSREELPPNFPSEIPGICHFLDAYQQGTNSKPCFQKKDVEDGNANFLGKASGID

One assay has as its target soluble guanylate cyclase (sGC) (Homo sapiens (Human), UniProt Q02108+Q02153). Kind of assay: sGC-HEK-cGMP assay, new protocol with DETA-NONOate, LC/MS detection (Example 2C). The note with it: HEK293 cells, 10 μM DETA-NONOate, LC/MS detection; concentration eliciting 50% of high control response (30 μM I-329); read-out: Absolute EC50 (uM) - binned. Format: cell-based.
With `O=C(Nc1ccnc(-c2cc(-c3ccon3)n(Cc3ccccc3F)n2)n1)c1cocn1` [Compound I-557], the half-maximal effective concentration (EC50) (in general, the concentration that produces a half-maximal response) is above 1 µM.

The assay is the same for the next values; noted with them: read-out: Absolute EC50 (uM) - binned.
`O=C1Nc2nc(-c3cc(-c4ccon4)n(Cc4ccccc4F)n3)ncc2OC1(C(F)(F)F)C(F)(F)F` [Compound I-492]: the 50% effective concentration (EC50) was 0.101 to 1 µM.

Take `O=C(NC1CC1)C(Nc1nc(-c2cc(-c3ccon3)n(Cc3ccccc3F)n2)ncc1F)C(F)(F)F` (stereo not shown) [Compound I-493]: the EC50 was in the range of 0.101 to 1 µM.

`CC1(C)CCN(c2ccnc(-c3cc(-c4ccon4)n(Cc4ccccc4F)n3)n2)C1=O` [Compound I-494]: the half-maximal effective concentration (EC50) was in the range of 0.101 to 1 µM.

In the case of `[2H]C([2H])(O)C([2H])([2H])Nc1nc(-c2cc(-c3ccon3)n(Cc3ccccc3F)n2)ncc1F` [Compound I-495], the concentration for a half-maximal effect (EC50) is below 0.1 µM.

Consider `Cc1nnc(CNc2nc(-c3cc(-c4ccon4)n(Cc4ccccc4F)n3)ncc2F)o1` [Compound I-496], for which the EC50 is below 0.1 µM.

Regarding `CC(=O)OCC(=O)Nc1ccnc(-c2cc(-c3ccon3)n(Cc3ccccc3F)n2)n1` [Compound I-497], the EC50 was 0.101 to 1 µM.

For the compound `CC(=O)OCC(=O)Nc1nc(-c2cc(-c3ccon3)n(Cc3ccccc3F)n2)ncc1F` [Compound I-498], the half-maximal effective concentration (EC50) was 0.101 to 1 µM.

Regarding `O=C(CO)Nc1ccnc(-c2cc(-c3ccon3)n(Cc3ccccc3F)n2)n1` [Compound I-499], the EC50 is above 1 µM.

`OC(CNc1ccnc(-c2cc(-c3ccon3)n(Cc3ccccc3F)n2)n1)(C(F)(F)F)C(F)(F)F` [Compound I-500]: the concentration for a half-maximal effect (EC50) lay in the range of 0.101 to 1 µM.

With `O=C1CCC(C(F)(F)F)N1c1nc(-c2cc(-c3ccon3)n(Cc3ccccc3F)n2)ncc1F` (stereo not shown) [Compound I-501], the EC50 was above 1 µM.

Consider `OCC1(Nc2nc(-c3cc(-c4ccon4)n(Cc4ccccc4F)n3)ncc2F)CC1` [Compound I-502], for which the EC50 lay within 0.101 to 1 µM.

With `O=S1(=O)CCCN1c1nc(-c2cc(-c3ccon3)n(Cc3ccccc3F)n2)ncc1F` [Compound I-503], the concentration giving a half-maximal response (EC50) is 0.101 to 1 µM.

Turning to `O=C1OCC(C(F)(F)F)N1c1ccnc(-c2cc(-c3ccon3)n(Cc3ccccc3F)n2)n1` (stereo not shown) [Compound I-504], the EC50 was above 1 µM.

`CC(C)S(=O)(=O)Nc1nc(-c2cc(-c3ccon3)n(Cc3ccccc3F)n2)ncc1F` [Compound I-505]: the EC50 was 0.101 to 1 µM.

Turning to `Oc1nc(-c2cc(-c3ccon3)n(CCC(F)(F)F)n2)ncc1F` [Compound I-507], the half-maximal effective concentration (EC50) is above 1 µM.

On to `CC(C)C(Nc1nc(-c2cc(-c3ccon3)n(Cc3ccccc3F)n2)ncc1F)C(=O)NC1CC1` (stereo not shown) [Compound I-508], for which the EC50 is below 0.1 µM.

For `Fc1ccccc1Cn1nc(-c2ncc(F)c(NCCSC(F)(F)F)n2)cc1-c1ccon1` [Compound I-509], the concentration giving a half-maximal response (EC50) was below 0.1 µM.

Turning to `COC(=O)CS(=O)(=O)Nc1ccnc(-c2cc(-c3ccon3)n(Cc3ccccc3F)n2)n1` [Compound I-510], the half-maximal effective concentration (EC50) was 0.101 to 1 µM.

In the case of `NC(=O)CNc1nc(-c2cc(-c3ccon3)n(CCC(F)(F)F)n2)ncc1F` [Compound I-511], the EC50 was above 1 µM.

On to `CC1(C)CCC(=O)N1c1nc(-c2cc(-c3ccon3)n(Cc3ccccc3F)n2)ncc1F` [Compound I-512], for which the EC50 is above 1 µM.

For `Nc1nc(-c2cc(-c3ccon3)n(CCC(F)(F)F)n2)ncc1F` [Compound I-513], the concentration giving a half-maximal response (EC50) is above 1 µM.

As to `O=S(=O)(CCNc1nc(-c2cc(-c3ccon3)n(Cc3ccccc3F)n2)ncc1F)C(F)(F)F` [Compound I-514], the EC50 is below 0.1 µM.

Consider `NC(=O)C1(CNc2nc(-c3cc(-c4ccon4)n(Cc4ccccc4F)n3)ncc2F)CC1` [Compound I-515], for which the EC50 is below 0.1 µM.

`OC(CNc1nc(-c2cc(-c3ccon3)n(CCC(F)(F)F)n2)ncc1F)(C(F)(F)F)C(F)(F)F` [Compound I-516]: the concentration giving a half-maximal response (EC50) is above 1 µM.

As to `CCN(CC)c1nc(-c2cc(-c3ccon3)n(CCC(F)(F)F)n2)ncc1F` [Compound I-517], the EC50 was above 1 µM.

For the compound `NC(CNc1nc(-c2cc(-c3ccon3)n(Cc3ccccc3F)n2)ncc1F)C(F)(F)F` (stereo not shown) [Compound I-518], the EC50 is below 0.1 µM.

In the case of `CC(C)(C)OC(=O)NCC(=O)Nc1ccnc(-c2cc(-c3ccon3)n(Cc3ccccc3F)n2)n1` [Compound I-519], the concentration giving a half-maximal response (EC50) lay within 0.101 to 1 µM.

Consider `NCC(=O)Nc1ccnc(-c2cc(-c3ccon3)n(Cc3ccccc3F)n2)n1` [Compound I-520], for which the 50% effective concentration (EC50) lay within 0.101 to 1 µM.

Regarding `OCC(F)(F)CNc1nc(-c2cc(-c3ccon3)n(Cc3ccccc3F)n2)ncc1F` [Compound I-521], the concentration giving a half-maximal response (EC50) was below 0.1 µM.

Regarding `NC(=O)C(O)(CNc1nc(-c2cc(-c3ccon3)n(Cc3cccc(F)c3F)n2)ncc1F)C(F)(F)F` (stereo not shown) [Compound I-522], the concentration for a half-maximal effect (EC50) is below 0.1 µM.

Regarding `CN(CC1(C(=O)O)CC1)c1nc(-c2cc(-c3ccon3)n(CCC(F)(F)F)n2)ncc1F` [Compound I-523], the half-maximal effective concentration (EC50) was above 1 µM.

For `CC(=O)Nc1ccnc(-c2cc(-c3ccon3)n(Cc3ccccc3F)n2)n1` [Compound I-524], the half-maximal effective concentration (EC50) was above 1 µM.

As for `O=C(Nc1ccnc(-c2cc(-c3ccon3)n(Cc3ccccc3F)n2)n1)C1(OCc2ccccc2)CCOCC1` [Compound I-525], the EC50 was above 1 µM.

As for `CC1(S(C)(=O)=O)CCN(c2nc(-c3cc(-c4ccon4)n(Cc4ccccc4F)n3)ncc2F)C1=O` (stereo not shown) [Compound I-526], the concentration giving a half-maximal response (EC50) is above 1 µM.

Regarding `CC(CCO)(C(=O)Nc1nc(-c2cc(-c3ccon3)n(Cc3ccccc3F)n2)ncc1F)S(C)(=O)=O` (stereo not shown) [Compound I-527], the EC50 was 0.101 to 1 µM.

Regarding `COCC(=O)Nc1ccnc(-c2cc(-c3ccon3)n(Cc3ccccc3F)n2)n1` [Compound I-528], the EC50 was above 1 µM.

In the case of `CN(CC(O)(C(F)(F)F)C(F)(F)F)c1nc(-c2cc(-c3ccon3)n(Cc3ccccc3F)n2)ncc1F` [Compound I-529], the concentration for a half-maximal effect (EC50) was above 1 µM.

In the case of `NC(=O)[C@@](O)(CNc1nc(-c2cc(-c3ccon3)n(Cc3ccccc3F)n2)ncc1F)C(F)(F)F` [Compound I-530], the concentration for a half-maximal effect (EC50) lay within 0.101 to 1 µM.

For the compound `NC(=O)[C@](O)(CNc1nc(-c2cc(-c3ccon3)n(Cc3ccccc3F)n2)ncc1F)C(F)(F)F` [Compound I-531], the 50% effective concentration (EC50) is below 0.1 µM.

Regarding `O=C(Nc1ccnc(-c2cc(-c3ccon3)n(Cc3ccccc3F)n2)n1)c1cocn1` [Compound I-532], the EC50 was above 1 µM.

For `O=C1CCC(=O)N1c1nc(-c2cc(-c3ccon3)n(Cc3ccccc3F)n2)ncc1F` [Compound I-533], the EC50 lay within 0.101 to 1 µM.

Regarding `NC(=O)C1CCC(=O)N1c1nc(-c2cc(-c3ccon3)n(Cc3ccccc3F)n2)ncc1F` (stereo not shown) [Compound I-534], the concentration giving a half-maximal response (EC50) was above 1 µM.

On to `CC(=O)NCC(=O)Nc1ccnc(-c2cc(-c3ccon3)n(Cc3ccccc3F)n2)n1` [Compound I-535], for which the EC50 is 0.101 to 1 µM.

As to `CC(C)[C@@H](Nc1nc(-c2cc(-c3ccon3)n(Cc3ccccc3F)n2)ncc1F)C(N)=O` [Compound I-536], the half-maximal effective concentration (EC50) was below 0.1 µM.

On to `CC(C)[C@H](Nc1nc(-c2cc(-c3ccon3)n(Cc3ccccc3F)n2)ncc1F)C(N)=O` [Compound I-537], for which the 50% effective concentration (EC50) is below 0.1 µM.

Turning to `NC(=O)C1(Nc2nc(-c3cc(-c4ccon4)n(Cc4ccccc4F)n3)ncc2F)CC1` [Compound I-538], the concentration giving a half-maximal response (EC50) was below 0.1 µM.

Take `O=S(=O)(CCO)Nc1ccnc(-c2cc(-c3ccon3)n(Cc3ccccc3F)n2)n1` [Compound I-539]: the EC50 is above 1 µM.

For the compound `NC(=O)C(Nc1nc(-c2cc(-c3ccon3)n(Cc3ccccc3F)n2)ncc1F)C(F)(F)F` (stereo not shown) [Compound I-540], the EC50 lay in the range of 0.101 to 1 µM.

Consider `COC(=O)Nc1nc(-c2cc(-c3ccon3)n(Cc3ccccc3F)n2)ncc1[N+](=O)[O-]` [Compound I-541], for which the EC50 was above 1 µM.

With `COC(=O)Nc1nc(-c2cc(-c3ccon3)n(Cc3ccccc3F)n2)ncc1N` [Compound I-542], the EC50 is 0.101 to 1 µM.

Turning to `CS(=O)(=O)NCC(=O)Nc1ccnc(-c2cc(-c3ccon3)n(Cc3ccccc3F)n2)n1` [Compound I-543], the EC50 was 0.101 to 1 µM.

Consider `CS(=O)(=O)NCCC(Nc1nc(-c2cc(-c3ccon3)n(Cc3ccccc3F)n2)ncc1F)C(F)(F)F` (stereo not shown) [Compound I-544], for which the EC50 is below 0.1 µM.

For `CS(=O)(=O)C1(CNc2nc(-c3cc(-c4ccon4)n(Cc4ccccc4F)n3)ncc2F)CC1` [Compound I-545], the 50% effective concentration (EC50) was below 0.1 µM.

For the compound `CS(=O)(=O)NC(=O)CNc1nc(-c2cc(-c3ccon3)n(Cc3ccccc3F)n2)ncc1F` [Compound I-546], the EC50 was above 1 µM.

For the compound `COCCC(=O)Nc1ccnc(-c2cc(-c3ccon3)n(Cc3ccccc3F)n2)n1` [Compound I-547], the EC50 is 0.101 to 1 µM.

Regarding `Cc1ccc(S(=O)(=O)NC(C)C(=O)Nc2ccnc(-c3cc(-c4ccon4)n(Cc4ccccc4F)n3)n2)cc1` (stereo not shown) [Compound I-548], the EC50 is above 1 µM.

For `O=C(Nc1ccnc(-c2cc(-c3ccon3)n(Cc3ccccc3F)n2)n1)c1cscn1` [Compound I-549], the concentration for a half-maximal effect (EC50) is above 1 µM.

Regarding `O=C(Nc1ccnc(-c2cc(-c3ccon3)n(Cc3ccccc3F)n2)n1)c1ccc[nH]1` [Compound I-550], the EC50 is above 1 µM.

With `N#CC1(C(=O)Nc2ccnc(-c3cc(-c4ccon4)n(Cc4ccccc4F)n3)n2)CC1` [Compound I-551], the EC50 is above 1 µM.

Turning to `O=C(Nc1ccnc(-c2cc(-c3ccon3)n(Cc3ccccc3F)n2)n1)c1cncs1` [Compound I-552], the EC50 was above 1 µM.

With `O=C(Nc1ccnc(-c2cc(-c3ccon3)n(Cc3ccccc3F)n2)n1)c1cccc(=O)[nH]1` [Compound I-553], the EC50 is above 1 µM.

Turning to `COc1cc(C(=O)Nc2ccnc(-c3cc(-c4ccon4)n(Cc4ccccc4F)n3)n2)on1` [Compound I-554], the EC50 was above 1 µM.

As to `O=C(Nc1ccnc(-c2cc(-c3ccon3)n(Cc3ccccc3F)n2)n1)c1ccncn1` [Compound I-555], the concentration for a half-maximal effect (EC50) is above 1 µM.

In the case of `O=C(Nc1ccnc(-c2cc(-c3ccon3)n(Cc3ccccc3F)n2)n1)c1cnco1` [Compound I-556], the concentration giving a half-maximal response (EC50) was above 1 µM.

For the compound `O=C(Nc1ccnc(-c2cc(-c3ccon3)n(Cc3ccccc3F)n2)n1)C1CC1` [Compound I-558], the EC50 lay within 0.101 to 1 µM.

Consider `CO[C@H](C(=O)Nc1ccnc(-c2cc(-c3ccon3)n(Cc3ccccc3F)n2)n1)c1ccccc1` [Compound I-559], for which the half-maximal effective concentration (EC50) fell in the range of 0.101 to 1 µM.

Source of the values: patent US10183021B2, “sGC stimulators” (Ironwood Pharmaceuticals, Inc., priority 2013, dated 2019).
